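The concentration for 50% growth inhibition is given as GI50. The concentration for full growth arrest is given as TGI.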 Residues, ends and D or L forms follow the SMILES beside them. *: point of attachment. Cbz = O=C(OCc1ccccc1)*
Assays:
Experiment in all cases: NCI-60 cell line screen, 384-well format
[1] = system: NCI-H226 lung
[2] = system: SK-MEL-2 melanoma
[3] = system: OVCAR-5 ovarian
[4] = system: MDA-MB-468 breast
[5] = system: MOLT-4 leukemia
[6] = system: SR leukemia
[7] = system: SK-MEL-28 melanoma
[8] = system: ACHN renal
[9] = system: OVCAR-3 ovarian
[10] = system: RXF 393 renal
[11] = system: T-47D breast
[12] = system: NCI-H522 lung
[13] = system: SNB-75 CNS
[14] = system: HT29 colon
[15] = system: 786-0 renal
[16] = system: SN12C renal
[17] = system: CCRF-CEM leukemia
[18] = system: SK-MEL-5 melanoma
[19] = system: DU-145 prostate
[20] = system: OVCAR-8 ovarian
[21] = system: HCC-2998 colon
[22] = system: NCI/ADR-RES ovarian
[23] = system: MDA-MB-231 breast
[24] = system: SF-295 CNS
[25] = system: SF-268 CNS
[26] = system: HS 578T breast
[27] = system: RPMI-8226 leukemia
[28] = system: A549 NSCLC
[29] = system: SK-OV-3 ovarian
[30] = system: HCT-116 colon
[31] = system: SF-539 CNS
[32] = system: IGROV1 ovarian
[33] = system: NCI-H322M lung
[34] = system: M14 melanoma
[35] = system: UACC-257 melanoma
[36] = system: HCT-15 colon
[37] = system: OVCAR-4 ovarian
[38] = system: MALME-3M melanoma
[39] = system: MCF7 breast
[40] = system: EKVX NSCLC
[41] = system: UO-31 renal
[42] = system: HOP-62 NSCLC
[43] = system: K-562 leukemia
[44] = system: UACC-62 melanoma
[45] = system: SW-620 colon
[46] = system: MDA-MB-435 melanoma
[47] = system: HOP-92 NSCLC

**Q.** What does the source list for `CC(C)C[C@@H](C=O)NC(=O)[C@H](CC(C)C)NC(=O)[C@H](CC(C)C)NC(=O)OCc1ccccc1` (Cbz-Leu-Leu-Leu-aldehyde)?
**A.** GI50 [1]: 188 nM; TGI [1]: 372 nM; GI50 [2]: 134 nM; TGI [2]: 268 nM; GI50 [3]: 213 nM; TGI [3]: 440 nM; GI50 [4]: 126 nM; TGI [4]: 253 nM; GI50 [5]: 74.8 nM; TGI [5]: 200 nM; GI50 [6]: 24.7 nM; TGI [6]: 98 nM; GI50 [7]: 142 nM; TGI [7]: 280 nM; GI50 [8]: 202 nM; TGI [8]: 425 nM; GI50 [9]: 94 nM; TGI [9]: 225 nM; GI50 [10]: 149 nM; TGI [10]: 283 nM; GI50 [11]: 169 nM; TGI [11]: 319 nM; GI50 [12]: 85.8 nM; TGI [12]: 225 nM; GI50 [13]: 185 nM; TGI [13]: 351 nM; GI50 [14]: 178 nM; TGI [14]: 335 nM; GI50 [15]: 180 nM; TGI [15]: 361 nM; GI50 [16]: 177 nM; TGI [16]: 355 nM; GI50 [17]: 114 nM; TGI [17]: 239 nM; GI50 [18]: 215 nM; TGI [18]: 370 nM; GI50 [19]: 212 nM; TGI [19]: 506 nM; GI50 [20]: 164 nM; TGI [20]: 313 nM; GI50 [21]: 179 nM; TGI [21]: 327 nM; GI50 [22]: 1570 nM; TGI [22]: 3060 nM; GI50 [23]: 177 nM; TGI [23]: 326 nM; GI50 [24]: 192 nM; TGI [24]: 385 nM; GI50 [25]: 166 nM; TGI [25]: 313 nM; GI50 [26]: 121 nM; TGI [26]: 246 nM; GI50 [27]: 30.1 nM; TGI [27]: 70.2 nM; GI50 [28]: 427 nM; TGI [28]: 1690 nM; GI50 [29]: 220 nM; TGI [29]: 538 nM; GI50 [30]: 146 nM; TGI [30]: 296 nM; GI50 [31]: 167 nM; TGI [31]: 307 nM; GI50 [32]: 184 nM; TGI [32]: 358 nM; GI50 [33]: 361 nM; TGI [33]: 1290 nM; GI50 [34]: 179 nM; TGI [34]: 324 nM; GI50 [35]: 131 nM; TGI [35]: 263 nM; GI50 [36]: 194 nM; TGI [36]: 362 nM; GI50 [37]: 174 nM; TGI [37]: 324 nM; GI50 [38]: 155 nM; TGI [38]: 291 nM; GI50 [39]: 99.1 nM; TGI [39]: 603 nM; GI50 [40]: 222 nM; TGI [40]: 534 nM; GI50 [41]: 179 nM; TGI [41]: 324 nM; GI50 [42]: 180 nM; TGI [42]: 339 nM; GI50 [43]: 176 nM; TGI [43]: 334 nM; GI50 [44]: 168 nM; TGI [44]: 312 nM; GI50 [45]: 138 nM; TGI [45]: 275 nM; GI50 [46]: 176 nM; TGI [46]: 321 nM; GI50 [47]: 179 nM; TGI [47]: 328 nM
